Values quoted from earlier work as cited in patent US20150246027A1, “FIXED DOSE PHARMACEUTICAL COMPOSITION COMPRISING DEFERASIROX AND DEFERIPRONE” (CIPLA LIMITED, priority 2012, published 2015).
Values after ≈ are worked out from the molar mass of the structure shown. “Also recorded” adds a separate entry of the source.

Columns and labels:
[1] = Bio-pharmaceutics Classification System
[2] = for solubility in water (in words): water / aqueous media
[3] = oral; majority excreted as inactive glucuronide metabolite

SMILES	permeability (in words)	BCS class [1]	solubility at pH 6.8 (in words) ([2]; pH 6.8, until the buffer strength is altered)	solubility in water (in words) [2]	solubility in water ([2]; water)	ingested dose excreted as the active form [3]
O=C(O)c1ccc(-n2nc(-c3ccccc3O)nc2-c2ccccc2O)cc1 [Deferasirox, 4-[3,5-bis(2-hydroxyphenyl)-[1,2,4]triazol-1-yl]enzoic acid]	good permeability	Class II	insoluble	highly water-insoluble; also recorded: practically insoluble		
Cc1c(O)c(=O)ccn1C [Deferiprone, 3-hydroxy-1,2-dimethylpyridin-4-one]				sparingly soluble	12.95 mg/mL (≈ 93.1 mM)	less than 10%
